Consider 20 molecules from patent publication USRE46856E1, “Substituted 2,3-dihydroimidazo[1,2-c]quinazoline derivatives useful for treating hyper-proliferative disorders and diseases associated with angiogenesis” (Bayer Intellectual Property GmbH, priority 2006, dated 2018).

The structures appear in SMILES notation. pIC50: −log10 of the molar value. Structures can show the parent of a compound that is named as a salt. Bounds are passed on as bounds.

One assay deals with T1, PI3Kα (Homo sapiens, UniProt P42336).
T1 construct: His6 (N); made in house; host or cells: S. frugiperda 9 (Sf9) insect cells
The assay is described as follows: Solid-phase lipid kinase assay of PI3Kα (p110α assay). Type of assay: biochemical. The following applies: recombinant truncated human p110α, 10 μM ATP. The source says:
[Determination of IC50 Values of Compounds in Kinase Assay of PI3Kα]
LABORATORIES (Toronto, Canada). […] [γ^33P]ATP and unlabeled ATP were purchased from […] […] BIOTECH (Buckinghamshire, UK) and ROCHE DIAGNOSTICS (Mannheim, Germany), respectively. Scintillation cocktails and MicroScint PS™ were purchased from PACKARD (Meriden, Conn.). Maxisorp™ plates were purchased from NALGE NUNC INTERNATIONAL K.K. (Tokyo, Japan). All other chemicals not further specified were from WAKO PURE CHEMICALS (Osaka, Japan).
The plates were subsequently air-dried by incubation for at least 2 hours in a fume hood. The reaction was set up by mixing 25 μL/well of assay buffer 2×(100 mM MOPSO/NaOH, 0.2 M NaCl, pH 7.0, 8 mM MgCl2, 2 mg/mL BSA (fatty acid-free)), and 7.5 ng/well PI3Kα in the lipid pre-coated plate. 100× test compounds were added in 2% DMSO. The reaction was started by adding 20 μL/well of ATP mix (final 10 μM ATP; 0.05 μCi/well [γ^33P]ATP). After incubation at RT for 2 hours, the reaction was terminated by adding 50 μl/well stop solution (50 mM EDTA, pH 8.0). The plate was then washed twice with Tris-buffered saline (TBS, pH 7.4). MicroScint PS™ (PACKARD) scintillation mix was added at 100 μL/well, and radioactivity was counted using a TopCount™ (PACKARD) scintillation counter.
The inhibition percent at each concentration of compound was calculated, and IC50 values were determined from the inhibition of curve.

For another assay, the target named is T2, PI3Kβ (Homo sapiens, UniProt P42338).
T2 construct: His6 (N); made in house; host or cells: S. frugiperda 9 (Sf9) insect cells
As to the kind of experiment: Isozyme selectivity test: kinase assay of PI3Kβ (p110β assay). Type of assay: biochemical. To be noted: recombinant truncated p110β, 7.5 ng protein/well. The source says:
[Isozyme Selectivity Test in PI3K]
Determination of IC50 Values of Compounds in Kinase Assays of PI3Kβ and PI3Kγ

Assay [1] deals with IGF-1 induced AKT phosphorylation in A549 cells. As to the kind of experiment: IGF-1 induced AKT phosphorylation assay (A549 cell assay). It counts as cell-based. The following applies: Homo sapiens; A549 cells, 25 ng/ml IGF-1, phospho-AKT(Ser 473); read-out: average IC50 in the A549 cell assay. The procedure, abridged: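 A549 cells stimulated with 25 ng/ml IGF-1 for 10 min at 37 °C, then fixed in formaldehyde/methanol. Phospho-AKT detected by cell ELISA (primary anti-phospho-AKT, HRP secondary, ECL luminescence); IC50 from inhibition curve.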

T1 sequence (P42336 109-1068): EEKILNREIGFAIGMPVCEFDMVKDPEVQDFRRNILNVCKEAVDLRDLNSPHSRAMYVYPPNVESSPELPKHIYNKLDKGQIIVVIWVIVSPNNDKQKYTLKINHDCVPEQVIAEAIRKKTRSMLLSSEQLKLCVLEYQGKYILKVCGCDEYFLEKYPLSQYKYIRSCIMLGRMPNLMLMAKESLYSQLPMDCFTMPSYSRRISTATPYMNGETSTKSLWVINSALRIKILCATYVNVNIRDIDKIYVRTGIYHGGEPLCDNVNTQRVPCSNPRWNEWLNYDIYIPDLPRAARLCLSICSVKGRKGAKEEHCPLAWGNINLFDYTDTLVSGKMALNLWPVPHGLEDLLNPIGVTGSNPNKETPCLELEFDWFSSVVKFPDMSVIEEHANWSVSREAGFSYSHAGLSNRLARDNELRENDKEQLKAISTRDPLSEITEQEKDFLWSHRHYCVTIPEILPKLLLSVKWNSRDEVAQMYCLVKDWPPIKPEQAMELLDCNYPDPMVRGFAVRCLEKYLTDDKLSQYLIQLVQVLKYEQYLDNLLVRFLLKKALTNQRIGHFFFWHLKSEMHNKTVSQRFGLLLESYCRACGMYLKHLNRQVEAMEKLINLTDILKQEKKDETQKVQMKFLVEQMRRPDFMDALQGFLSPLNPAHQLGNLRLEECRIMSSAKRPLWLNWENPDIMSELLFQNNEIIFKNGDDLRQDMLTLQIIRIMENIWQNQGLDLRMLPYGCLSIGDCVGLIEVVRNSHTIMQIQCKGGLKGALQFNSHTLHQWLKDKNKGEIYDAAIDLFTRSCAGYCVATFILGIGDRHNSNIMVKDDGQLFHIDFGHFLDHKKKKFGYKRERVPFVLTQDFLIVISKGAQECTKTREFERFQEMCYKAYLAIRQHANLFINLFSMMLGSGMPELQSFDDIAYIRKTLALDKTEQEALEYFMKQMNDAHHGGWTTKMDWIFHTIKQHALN
T2 sequence (P42338 109-1070): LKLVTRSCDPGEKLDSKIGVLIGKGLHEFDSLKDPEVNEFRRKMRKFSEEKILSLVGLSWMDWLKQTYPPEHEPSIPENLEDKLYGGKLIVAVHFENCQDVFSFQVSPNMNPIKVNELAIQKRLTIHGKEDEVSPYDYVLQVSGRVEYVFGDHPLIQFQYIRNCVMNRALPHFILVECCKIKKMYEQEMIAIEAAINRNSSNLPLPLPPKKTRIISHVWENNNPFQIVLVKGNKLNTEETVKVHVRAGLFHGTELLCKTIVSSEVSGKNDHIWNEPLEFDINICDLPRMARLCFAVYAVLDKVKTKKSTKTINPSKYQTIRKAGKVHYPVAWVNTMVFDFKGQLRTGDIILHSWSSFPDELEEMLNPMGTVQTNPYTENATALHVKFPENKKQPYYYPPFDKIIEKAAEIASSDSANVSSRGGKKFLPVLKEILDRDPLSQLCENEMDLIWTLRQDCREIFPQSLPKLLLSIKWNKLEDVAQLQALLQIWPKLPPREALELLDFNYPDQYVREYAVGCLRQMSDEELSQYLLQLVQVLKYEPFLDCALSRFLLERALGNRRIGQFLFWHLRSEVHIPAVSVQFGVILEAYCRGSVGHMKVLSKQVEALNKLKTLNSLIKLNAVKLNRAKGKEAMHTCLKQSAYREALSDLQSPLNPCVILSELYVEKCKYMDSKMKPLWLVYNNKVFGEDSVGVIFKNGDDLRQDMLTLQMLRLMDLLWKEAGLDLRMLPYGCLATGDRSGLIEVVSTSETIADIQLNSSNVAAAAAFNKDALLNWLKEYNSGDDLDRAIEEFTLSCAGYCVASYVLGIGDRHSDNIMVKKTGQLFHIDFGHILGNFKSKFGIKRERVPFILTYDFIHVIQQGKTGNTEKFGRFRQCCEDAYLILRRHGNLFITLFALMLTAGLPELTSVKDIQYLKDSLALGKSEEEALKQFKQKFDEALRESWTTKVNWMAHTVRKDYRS

Consider `CCN1CCOC(COc2ccc3c(c2OC)N=C(NC(=O)c2cccnc2)N2CCN=C32)C1` (stereo not drawn) [Example 21, N-{8-[(4-ethylmorpholin-2-yl)methoxy]-7-methoxy-2,3-dihydroimidazo[1,2-c]quinazolin-5-yl}nicotinamide], for which the negative-log IC50 (pIC50) at PI3Kα is 7.00 to 8.00; at PI3Kβ, 7.00 to 8.00; in assay [1], over 7.00.

Take `COc1c(OCCCN(C)C)ccc2c1N=C(NC(=O)c1ccc[n+]([O-])c1)N1CCN=C21` [Example 12, N-{8-[3-(dimethylamino)propoxy]-7-methoxy-2,3-dihydroimidazo[1,2-c]quinazolin-5-yl}nicotinamide 1-oxide]: the pIC50 was under 7.00 on PI3Kα, under 7.00 on PI3Kβ and under 6.00 in assay [1].

On to `COc1c(OCCCN2CCOCC2)ccc2c1N=C(NC(=O)c1cnc(N3CCCC3)nc1)N1CCN=C21` [Example 47, N-[7-methoxy-8-(3-morpholin-4-ylpropoxy)-2,3-dihydroimidazo[1,2-c]quinazolin-5-yl]-2-pyrrolidin-1-ylpyrimidine-5-carboxamide], for which the values for the pIC50 (on PI3Kα; on PI3Kβ; in assay [1]) were 7.00 to 8.00, 7.00 to 8.00 and over 7.00, respectively.

`COc1c(OCCC2CN(CC3CCC3)CCO2)ccc2c1N=C(NC(=O)c1cccnc1)N1CCN=C21` (stereo not drawn) [Example 19, N-(8-{2-[4-(cyclobutylmethyl)morpholin-2-yl]ethoxy}-7-methoxy-2,3-dihydroimidazo[1,2-c]quinazolin-5-yl)nicotinamide]: the pIC50 on PI3Kα is over 8.00; on PI3Kβ, over 8.00; in assay [1], over 7.00.

Regarding `COc1c(OCCCN2CCOCC2)ccc2c1N=C(NC(=O)c1ccc(C(F)(F)F)nc1)N1CCN=C21` [Example 62, N-[7-methoxy-8-(3-morpholin-4-ylpropoxy)-2,3-dihydroimidazo[1,2-c]quinazolin-5-yl]-6-(trifluoromethyl)nicotinamide], the figures for the negative-log IC50 (pIC50) (at PI3Kα; at PI3Kβ; in assay [1]) were 7.00 to 8.00, 7.00 to 8.00 and 6.00 to 7.00, respectively.

`COc1c(OCCCN2CCOCC2)ccc2c1N=C(NC(=O)c1cn(C)cn1)N1CCN=C21` [Example 26, N-[7-methoxy-8-(3-morpholin-4-ylpropoxy)-2,3-dihydroimidazo[1,2-c]quinazolin-5-yl]-1-methyl-1H-imidazole-4-carboxamide]: the values for the negative logarithm of the IC50 (pIC50) (at PI3Kα; on PI3Kβ; in assay [1]) were 7.00 to 8.00, 7.00 to 8.00 and under 6.00, respectively.

Take `COc1c(OCCCN2C[C@@H](C)O[C@@H](C)C2)ccc2c1N=C(NC(=O)c1cncnc1)N1CCN=C21` [Example 27, rel-N-(8-{3-[(2R,6S)-2,6-dimethylmorpholin-4-yl]propoxy}-7-methoxy-2,3-dihydroimidazo[1,2-c]quinazolin-5-yl)pyrimidine-5-carboxamide]: the figures for the pIC50 (at PI3Kα; on PI3Kβ; in assay [1]) were over 8.00, over 8.00 and over 7.00, respectively.

`COc1c(OCCCN2CCOCC2)ccc2c1N=C(NC(=O)c1ccc(OCC(F)(F)F)nc1)N1CCN=C21` [Example 61, N-[7-methoxy-8-(3-morpholin-4-ylpropoxy)-2,3-dihydroimidazo[1,2-c]quinazolin-5-yl]-6-(2,2,2-trifluoroethoxy)nicotinamide]: the pIC50 on PI3Kα is 7.00 to 8.00; at PI3Kβ it was 7.00 to 8.00; in assay [1], 6.00 to 7.00.

Turning to `COc1c(OCCCN2CCOCC2)ccc2c1N=C(NC(=O)c1ccc(N3CCNCC3)nc1)N1CCN=C21` [Example 50, N-[7-methoxy-8-(3-morpholin-4-ylpropoxy)-2,3-dihydroimidazo[1,2-c]quinazolin-5-yl]-6-piperazin-1-ylnicotinamide hydrochloride], the pIC50 at PI3Kα was 7.00 to 8.00; at PI3Kβ, 7.00 to 8.00; in assay [1] it was under 6.00.

For the molecule `COc1c(OCCCN2CCOCC2)ccc2c1N=C(NC(=O)c1cnc(NCCCN3CCOCC3)nc1)N1CCN=C21` [Example 43, N-[7-methoxy-8-(3-morpholin-4-ylpropoxy)-2,3-dihydroimidazo[1,2-c]quinazolin-5-yl]-2-[(3-morpholin-4-ylpropyl)amino]pyrimidine-5-carboxamide], the values for the negative-log IC50 (pIC50) (on PI3Kα; at PI3Kβ; in assay [1]) were 7.00 to 8.00, 7.00 to 8.00 and under 6.00, respectively.

For the molecule `COc1c(OCCCN2CCOCC2)ccc2c1N=C(NC(=O)c1ccc(CCN3CCCC3)nc1)N1CCN=C21` [Example 14, N-[7-methoxy-8-(3-morpholin-4-ylpropoxy)-2,3-dihydroimidazo[1,2-c]quinazolin-5-yl]-6-(2-pyrrolidin-1-ylethyl)nicotinamide], the pIC50 at PI3Kα was 7.00 to 8.00; at PI3Kβ, 7.00 to 8.00; in assay [1] it was under 6.00.

Regarding `COc1c(OCCCN2CCOCC2)ccc2c1N=C(NC(=O)c1csc(C)n1)N1CCN=C21` [Example 98, N-[7-methoxy-8-(3-morpholin-4-ylpropoxy)-2,3-dihydroimidazo[1,2-c]quinazolin-5-yl]-2-methyl-1,3-thiazole-4-carboxamide], the results for the pIC50 (on PI3Kα; on PI3Kβ; in assay [1]) were 7.00 to 8.00, 7.00 to 8.00 and under 6.00, respectively.

In the case of `COc1c(OCCCN2CCOCC2)ccc2c1N=C(NC(=O)c1ccnc(N)n1)N1CCN=C21` [Example 25, 2-amino-N-[7-methoxy-8-(3-morpholin-4-ylpropoxy)-2,3-dihydroimidazo[1,2-c]quinazolin-5-yl]pyrimidine-4-carboxamide], the pIC50 is 7.00 to 8.00 on PI3Kα, 7.00 to 8.00 on PI3Kβ and under 6.00 in assay [1].

For the molecule `COc1c(OCCCN2C[C@@H](C)O[C@@H](C)C2)ccc2c1N=C(NC(=O)c1cnc(N)nc1)N1CCN=C21` [Example 38, rel-2-amino-N-(8-{3-[(2R,6S)-2,6-dimethylmorpholin-4-yl]propoxy}-7-methoxy-2,3-dihydroimidazo[1,2-c]quinazolin-5-yl)pyrimidine-5-carboxamide], the pIC50 on PI3Kα was over 8.00; at PI3Kβ, over 8.00; in assay [1], over 7.00.

Turning to `COc1c(OCCCN2CCOCC2)ccc2c1N=C(NC(=O)c1cnc(N3CCN(C)CC3)nc1)N1CCN=C21` [Example 48, N-[7-methoxy-8-(3-morpholin-4-ylpropoxy)-2,3-dihydroimidazo[1,2-c]quinazolin-5-yl]-2-(4-methylpiperazin-1-yl)pyrimidine-5-carboxamide], the pIC50 at PI3Kα was under 7.00; at PI3Kβ, under 7.00; in assay [1], under 6.00.

Take `COc1c(OCCCN2CCOCC2)ccc2c1N=C(NC(=O)c1ccc(N3CCOCC3)nc1)N1CCN=C21` [Example 57, N-[7-methoxy-8-(3-morpholin-4-ylpropoxy)-2,3-dihydroimidazo[1,2-c]quinazolin-5-yl]-6-morpholin-4-ylnicotinamide]: the negative-log IC50 (pIC50) on PI3Kα was 7.00 to 8.00; on PI3Kβ, 7.00 to 8.00; in assay [1] it was 6.00 to 7.00.

Regarding `COc1c(OCCCN2CCOCC2)ccc2c1N=C(NC(=O)c1cccs1)N1CCN=C21` [Example 93, N-[7-methoxy-8-(3-morpholin-4-ylpropoxy)-2,3-dihydroimidazo[1,2-c]quinazolin-5-yl]thiophene-2-carboxamide], the pIC50 at PI3Kα is 7.00 to 8.00; at PI3Kβ, 7.00 to 8.00; in assay [1], 6.00 to 7.00.

For the molecule `COc1c(OCCCN2CCOCC2)ccc2c1N=C(NC(=O)c1ccc(-n3cccc3)nc1)N1CCN=C21` [Example 56, N-[7-methoxy-8-(3-morpholin-4-ylpropoxy)-2,3-dihydroimidazo[1,2-c]quinazolin-5-yl]-6-(1H-pyrrol-1-yl)nicotinamide], the pIC50 at PI3Kα is 7.00 to 8.00; at PI3Kβ it was 7.00 to 8.00; in assay [1] it was under 6.00.

With `COc1c(OCCCN2CCOCC2)ccc2c1N=C(NC(=O)c1ccc(NC3CCCC3)nc1)N1CCN=C21` [Example 15, 6-(cyclopentylamino)-N-[7-methoxy-8-(3-morpholin-4-ylpropoxy)-2,3-dihydroimidazo[1,2-c]quinazolin-5-yl]nicotinamide], the pIC50 on PI3Kα is 7.00 to 8.00; on PI3Kβ, 7.00 to 8.00; in assay [1], under 6.00.

On to `COc1c(OCCCN2CCOCC2)ccc2c1N=C(NC(=O)c1ccc(NCc3ccc(F)cc3)nc1)N1CCN=C21` [Example 53, 6-[(4-fluorobenzyl)amino]-N-[7-methoxy-8-(3-morpholin-4-ylpropoxy)-2,3-dihydroimidazo[1,2-c]quinazolin-5-yl]nicotinamide], for which the results for the negative logarithm of the IC50 (pIC50) (at PI3Kα; on PI3Kβ; in assay [1]) were 7.00 to 8.00, 7.00 to 8.00 and under 6.00, respectively.
